Legend:
[1] = system: ALK phosphorylation in NCI-H2228 and Karpas-299 cell lines; assay: Immunoblot of ALK phosphorylation and downstream signaling; assay type: cell-based; details: 2 h, dose-dependent
[2] = system: patients without treatment with other ALK inhibitors; details: phase I study, 24 patients, cited from earlier work

Compound	autophosphorylation of ALK; phosphorylation of AKT and STAT3 (immunoblot) [1]	ORR, ALK+ patients ([2]; ALK+)	ORR, NRTK1–3+ patients ([2]; NRTK1–3+)	ORR, ROS1+ patients ([2]; ROS1+)
Cc1cc(Nc2ncc(Cl)c(Nc3ccccc3S(=O)(=O)C(C)C)n2)c(OC(C)C)cc1C1CCNCC1 [Ceritinib]	can inhibit autophosphorylation of ALK	–	–	–
CN1CCN(c2ccc(C(=O)Nc3n[nH]c4ccc(Cc5cc(F)cc(F)c5)cc34)c(NC3CCOCC3)c2)CC1 [entrectinib]	–	57%	100%	85%

— publication PMC5704298 (ACS Central Science, 2017)
